# Assay results taken from patent US20100047839A1, “LATENT FLUORIMETRIC INDICATOR FOR BIOLOGICAL ANALYTES DETERMINATION AND THE PREPARATION METHOD THEREOF” (NATIONAL TAIPEI UNIVERSITY OF TECHNOLOGY, priority 2008, published 2010).
# What was measured:
# Format in all cases: biochemical
# Conditions in all cases: BQC 10 μM, λex 500 nm, λem 595 nm, 4 h, 37° C., pH 7.6, baseline subtracted
# DT Diaphorase [1] = target: T1, DT Diaphorase (Homo sapiens, UniProt P15559); experiment: Oxygen-insensitive DTD-coupling enzyme assay for ethanol determination (alcohol dehydrogenase, NAD+, DT Diaphorase)
# Procedure: (§1) All the fluorimetric measurements carried out with an excitation wavelength of λex=500 nm and an emission wavelength of λem=595 nm. The solutions containing BQC (10 μM), DTD (1 unit), and the corresponding dehydrogenase (1 to 10 unit), NAD^+ (10 μM), and ethanol, 3-hydroxybutrate or glucose-6-phosphate (0 to 10 μM) in Tris-HCl buffer with a final volume of 1 mL were incubated for 4 h at 37° C. The fluorimetric intensity of each solution after subtracting the baseline intensity ([analytes]=0) was plotted versus the analytes concentration.
# All different ethanol concentration analytes are tabulated in the table below, and the environment of assay is maintained in pH 7.6 at 37° C.
# DT Diaphorase [2] = target: T1, DT Diaphorase; experiment: Oxygen-insensitive DTD-coupling enzyme assay for 3-hydroxybutyrate determination (3-hydroxybutyrate dehydrogenase, NAD+, DT Diaphorase)
# Procedure: as §1
# All different 3-hydroxybutyrate concentration analytes are tabulated in the table below, and the environment of assay is maintained in pH 7.6 at 37° C.
# DT Diaphorase [3] = target: T1, DT Diaphorase; experiment: Oxygen-insensitive DTD-coupling enzyme assay for glucose-6-phosphate determination (glucose-6-phosphate dehydrogenase, phosphoglucomutase, NAD+, DT Diaphorase)
# Procedure: as §1
# All different glucose-6-phophate concentration analytes are tabulated in the table below, and the environment of assay is maintained in pH 7.6 at 37° C.
# T1 sequence (P15559 whole entry, species assumed): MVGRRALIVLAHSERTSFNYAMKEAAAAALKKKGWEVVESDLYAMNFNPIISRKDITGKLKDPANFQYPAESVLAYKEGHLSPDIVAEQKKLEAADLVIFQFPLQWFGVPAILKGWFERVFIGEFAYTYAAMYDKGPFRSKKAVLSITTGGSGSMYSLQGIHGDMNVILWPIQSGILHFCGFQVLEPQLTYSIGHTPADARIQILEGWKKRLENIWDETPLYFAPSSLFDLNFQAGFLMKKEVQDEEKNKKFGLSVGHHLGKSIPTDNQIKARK
compound,measurement,setting,value
CC1=C(C)C(=O)C(C(C)(C)CC(=O)N(C)CCN(C)C(=O)Oc2ccc3c(C#N)c(-c4nc5ccccc5s4)c(=O)oc3c2)=C(C)C1=O [BQC],relative fluorescence intensity,DT Diaphorase [1]; ethanol 0.2 μM,10.79
same,relative fluorescence intensity,DT Diaphorase [1]; ethanol 0.6 μM,26.18
same,relative fluorescence intensity,DT Diaphorase [1]; ethanol 0.8 μM,35.23
same,relative fluorescence intensity,DT Diaphorase [1]; ethanol 1 μM,39.42
same,relative fluorescence intensity,DT Diaphorase [1]; ethanol 2 μM,77.06
same,relative fluorescence intensity,DT Diaphorase [2]; 3-hydroxybutyrate 1 μM,16.17
same,relative fluorescence intensity,DT Diaphorase [2]; 3-hydroxybutyrate 2 μM,47.59
same,relative fluorescence intensity,DT Diaphorase [2]; 3-hydroxybutyrate 4 μM,83.74
same,relative fluorescence intensity,DT Diaphorase [2]; 3-hydroxybutyrate 6 μM,126.26
same,relative fluorescence intensity,DT Diaphorase [2]; 3-hydroxybutyrate 8 μM,144.93
same,relative fluorescence intensity,DT Diaphorase [2]; 3-hydroxybutyrate 10 μM,198.56
same,relative fluorescence intensity,DT Diaphorase [3]; glucose-6-phosphate 1 μM,17.02
same,relative fluorescence intensity,DT Diaphorase [3]; glucose-6-phosphate 2 μM,36.84
same,relative fluorescence intensity,DT Diaphorase [3]; glucose-6-phosphate 4 μM,76.41
same,relative fluorescence intensity,DT Diaphorase [3]; glucose-6-phosphate 6 μM,144.45
same,relative fluorescence intensity,DT Diaphorase [3]; glucose-6-phosphate 8 μM,175.2
same,relative fluorescence intensity,DT Diaphorase [3]; glucose-6-phosphate 9 μM,190.32
same,relative fluorescence intensity,DT Diaphorase [3]; glucose-6-phosphate 10 μM,207.94
